These results are taken from patent US8258182B2, “Substituted 1,3-diphenylpropane derivatives, preparations and uses thereof” (Genfit, priority 2006, dated 2012).

The test system of experiment [1] is db/db mice. In words: Plasma HDL-cholesterol, triglycerides and free fatty acids in db/db mice after per os treatment. The format is in vivo, mouse. As to conditions: 50 mpk per os, 28 days. The procedure:
The effect of the compounds according to the invention is evaluated in vivo on the db/db mice by measuring the levels of HDL-cholesterol, triglycerides, and plasma free fatty acids after 28 days of a per os treatment with the compounds according to the invention.
The hypolipidemic properties of the compounds according to the invention are evaluated in vivo by measuring the plasma levels of plasmatic lipids and by analyzing the genetic expression PPARs target genes, after treating the dyslipidemic db/db mice with the compounds according to the invention, administered by the oral route.
Female db/db mice were kept on a 12 hour/12 hour light/dark cycle at a constant temperature of 20±3° C. After a one week acclimatization period, the mice were weighed and divided into groups of 8 animals selected such as the distribution of body weight and of plasma lipid rate, determined before the experiment, was uniform. The tested compounds were suspended in carboxymethylcellulose (Sigma C4888) and administered to the animals by intra-gastric gavage, once a day for 28 days at the chosen doses. The animals had free access to food and water (standard diet). Taking of food and weight gain are recorded throughout the experiment. At the end of the experiment, after a 4 hour fast, the animals were anesthetized and a blood sample was taken on anticoagulant (EDTA). Then the mice were weighed and euthanized. The plasma was separated by centrifugation at 3000 rotations/minute for 20 minutes. The samples were kept at +4° C. The hepatic tissue and skeletal muscle samples were taken and frozen immediately in liquid nitrogen then conserved at −80° C. for later analysis.
Plasma triglycerides concentrations are measured by enzymatic assays (bioMérieux-Lyon-France) according to the provider's recommendations.
Low-density lipoproteins (VLDL and LDL) are precipitated by phosphotungstate. The precipitate is eliminated by centrifugation. HDL-cholesterol present in the supernatant is measured by enzymatic assay (bioMérieux-Lyon-France) in accordance with the provider's recommendations.

Experiment [2] deals with PPARs target genes (PDK4, ACO, UCP2) in hepatic and skeletal muscle tissue. In words: Expression of PPAR target genes in liver and skeletal muscle of db/db mice (quantitative RT-PCR). Format: in vivo, mouse. As to conditions: 50 mpk. As for the experimental part:
The effectiveness of the compounds according to the invention is also evaluated by measuring, in hepatic and muscular (skeletal) tissue, the expression of the genes involve in lipid and/or carbohydrate metabolism and in energy dissipation. Each level of gene expression is normalized in regarding the expression level of reference gene 36B4 in the hepatic tissue, or regarding the expression level of reference gene 18S in the gastrocnemius skeletal muscle. The induction factor, i.e. the ratio between the relative signal (induced by the compound according to the invention) and the average of relative values relating to the control group, is then calculated. The higher the induction factor is, the more the compound promotes gene expression. The final result is expressed as an average of the induction values obtained with each experimental group.
Female db/db mice were kept on a 12 hour/12 hour light/dark cycle at a constant temperature of 20±3° C. After a one week acclimatization period, the mice were weighed and divided into groups of 8 animals selected such as the distribution of body weight and of plasma lipid rate, determined before the experiment, was uniform. […] Taking of food and weight gain are recorded throughout the experiment. […]
1 μg of total RNA (quantified by spectrophotometry) was then reverse-transcripted into complementary DNA by means of a 1 hour reaction at 37° C. in a total volume of 20 μl containing a 1× buffer (Sigma), 1.5 mM of DTT, 0.18 mM of dNTPs (Promega), 200 ng of pdN6 (Amersham), 30U of RNase inhibitor (Sigma), and 1 μl of MMLV-RT (Sigma).
The PCR quantitative experiments were carried out using the MyiQ Single-Color Real-Time PCR Detection System (Biorad, Marnes-la-Coquette, France) and were performed using the iQ SYBR Green Supermix kit according to the provider's recommendations, in 96-well plates, with 5 μl of diluted reverse transcription solutions and at a hybridization temperature of 55° C. […]
The fluorescent quantity emitted is directly proportional to the amount of cDNA present at the beginning of the reaction and amplified during the PCR. […]

With `CCCOc1ccc(C(=O)CCc2cc(C)c(OC(C)(C)C(=O)O)c(C)c2)cc1` [Compound 8, 2-[2,6-dimethyl-4-[3-[4-(propyloxy)phenyl]-3-oxo-propyl]phenoxyl]-2-methylpropanoic acid], the “plasma HDL-cholesterol rates” value in experiment [1] (vs control animals (FIG. 3-1)) is recorded as “significantly increased”. For the same compound, the circulating triglycerides rates result in experiment [1] (vs control animals (FIG. 3-2)) was “very significantly decreased”. In experiment [1] (vs control animals (FIG. 3-3)), the “circulating free fatty acids rates” value is on record as “very significantly decreased”. The “hepatic expression of the genes coding for PDK4” value in experiment [2] (28 days (FIG. 3-4)) is on record as “significant increase”. Also, the “hepatic expression of the genes coding for ACO” value in experiment [2] (28 days (FIG. 3-5)) is listed as “significant increase”. For the same compound, the “expression of the gene coding for UCP2 in the skeletal muscle” value in experiment [2] (28 days (FIG. 3-6)) was “increase”.
